This experiment concerns Multispecies mature biofilm from clinical isolates (Actinomyces radicidentis, Enterococcus faecalis, Propionibacterium acnes, Streptococcus epidermidis …). Nature of the experiment: Viable post-experimental counts of multi-species biofilms on root halves after irrigation. It is filed as cell-based. Conditions: 1% NaOCl solution irrigation (5 ml) of root canals of extracted teeth with two-week biofilm; paper point sampling; FAA plates incubated anaerobically 7 days; triplicates. An excerpt: Twenty freshly extracted, single rooted teeth were obtained under ethical Approval (South East London ethical approval 10/H0804/056). Each tooth had the crown removed to obtain 15 mm long specimens, using a 0.3 mm thickness diamond wafering blade (Extec, Enfield, Conn., USA) on a 11-1180 Isomet low speed saw (Buehler, Düsseldorf, Germany). Root canal patency was confirmed using an ISO 10 K-file. Canals were instrumented with Gates Glidden (nr. 2-4) for coronal flaring followed by ProTaper F3 instrumentation and apical instrumentation with an ISO 45 K-file 1 mm short of the working length. Irrigation throughout the instrumentation was undertaken with sterile saline. […]
Multispecies mature biofilm from clinical isolates, identified through sequencing (Actinomyces radicidentis, Enterococcus faecalis, Propionibacterium acnes, Streptococcus epidermidis, Streptococcus oxalis) were grown in 24 multiwell plates for two weeks on root halves using a modification of the established 5-day biofilm protocol (Gmür & Guggenheim 1983). […] The turbidity was adjusted with fresh mFUM to OD at 540 nm (Labsystems iEMS Reader MF) to 0.5. […]
After each root had been subjected to its respective irrigation protocol and imaging steps, the root halves were aseptically placed in a 9 cm petri dish (SLS, East Riding of Yorkshire, UK). […] After the incubation, the numbers of colonies on FAA plates were counted. […]

Marks after values point to notes of the source that are not given here.

Regarding `OCl` [Sodium hypochlorite], the “Microbial counts expressed as log10 (Mean ± SE) after anaerobic growth” value is recorded as 0.51* Log10.

The record behind these values is US9611500B2, “Method for detecting the presence of the viable cells in an endodontic sample” (KINGS COLLEGE LONDON, priority 2011, dated 2017).
